pIC50: −log10 of the molar value.
These molecules were tested against DGKα (Homo sapiens (Human), UniProt P23743) (assay: Human DGKα kinase activity inhibition assay (ADP-Glo)). Settings: recombinant full-length human DGKα, 55 μM ATP, 7 μM 1,2-dioleoyl-sn-glycerol, read-out: IC50 values of examples in in vitro human DGKa kinase activity inhibition assays.
DGKα, sequence (P23743 other isoform, or with tags, fused parts or gaps): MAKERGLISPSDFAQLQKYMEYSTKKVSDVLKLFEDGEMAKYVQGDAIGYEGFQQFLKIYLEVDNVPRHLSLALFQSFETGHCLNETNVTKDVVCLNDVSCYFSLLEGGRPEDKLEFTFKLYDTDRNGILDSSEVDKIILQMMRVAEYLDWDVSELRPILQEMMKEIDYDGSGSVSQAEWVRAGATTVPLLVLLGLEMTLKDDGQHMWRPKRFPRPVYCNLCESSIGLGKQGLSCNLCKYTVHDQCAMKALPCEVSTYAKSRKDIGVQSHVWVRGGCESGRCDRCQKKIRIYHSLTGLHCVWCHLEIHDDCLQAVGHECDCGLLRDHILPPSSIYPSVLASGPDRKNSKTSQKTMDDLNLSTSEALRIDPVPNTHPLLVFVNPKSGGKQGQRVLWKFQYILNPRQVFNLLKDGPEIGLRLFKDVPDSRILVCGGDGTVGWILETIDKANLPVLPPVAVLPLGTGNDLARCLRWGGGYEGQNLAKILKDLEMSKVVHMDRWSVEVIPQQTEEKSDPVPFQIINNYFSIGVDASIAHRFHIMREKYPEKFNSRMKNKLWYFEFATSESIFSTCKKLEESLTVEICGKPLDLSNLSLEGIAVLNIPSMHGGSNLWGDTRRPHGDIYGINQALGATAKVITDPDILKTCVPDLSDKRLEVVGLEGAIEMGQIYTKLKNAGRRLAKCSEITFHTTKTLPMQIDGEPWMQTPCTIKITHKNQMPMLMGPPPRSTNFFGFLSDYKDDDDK
Type: biochemical
Procedure, shortened: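 Activity was measured as ADP production, detected by luciferase luminescence after removal of unused ATP. The enzyme was baculovirus-expressed full-length human DGKα with a C-terminal FLAG tag. The substrate was 1,2-dioleoyl-sn-glycerol in detergent micelles, and compounds came from 100× DMSO solutions.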
With Cc1ccc2oc(C3CCN(c4c(C(N)=O)c(=O)n(C)c5cc(N(C)CCO)ccc45)CC3)nc2c1 [Example 495, 7-[(2-hydroxyethyl)(methyl)amino]-1-methyl-4-[4-(5-methyl-1,3-benzoxazol-2-yl)piperidin-1-yl]-2-oxo-1,2-dihydroquinoline-3-carboxamide] the pIC50 was 8.85.
Cc1ccc2oc(C3CCN(c4c(C(N)=O)c(=O)n(C)c5ccc(C#N)cc45)CC3)nc2c1 [Example 498, 6-cyano-1-methyl-4-[4-(5-methyl-1,3-benzoxazol-2-yl)piperidin-1-yl]-2-oxo-1,2-dihydroquinoline-3-carboxamide] was tested, and the pIC50 was 8.51.
Work on Cc1ccc2oc(C3CCN(c4c(C(N)=O)c(=O)n(C)c5ccc(C(N)=O)cc45)CC3)nc2c1 [Example 499, 1-methyl-4-[4-(5-methyl-1,3-benzoxazol-2-yl)piperidin-1-yl]-2-oxo-1,2-dihydroquinoline-3,6-dicarboxamide] yielded a pIC50 of 7.13.
Work on Cc1ccc2oc(C3CCN(c4c(C(N)=O)c(=O)n(C)c5cc(N(C)CC#N)ccc45)CC3)nc2c1 [Example 500, 7-[(cyanomethyl)(methyl)amino]-1-methyl-4-[4-(5-methyl-1,3-benzoxazol-2-yl)piperidin-1-yl]-2-oxo-1,2-dihydroquinoline-3-carboxamide] yielded a pIC50 of 9.15.
Molecule COc1ccc2c(c1)c(N1CCC(c3nc4cc(C)ccc4o3)CC1)c(C(N)=O)c(=O)n2C [Example 501, 6-methoxy-1-methyl-4-[4-(5-methyl-1,3-benzoxazol-2-yl)piperidin-1-yl]-2-oxo-1,2-dihydroquinoline-3-carboxamide] has a pIC50 of 7.68.
CCOc1ccc2c(c1)c(N1CCC(c3nc4cc(C)ccc4o3)CC1)c(C(N)=O)c(=O)n2C [Example 502, 6-ethoxy-1-methyl-4-[4-(5-methyl-1,3-benzoxazol-2-yl)piperidin-1-yl]-2-oxo-1,2-dihydroquinoline-3-carboxamide] was tested, and the pIC50 was 6.92.
In the case of Cc1ccc2oc(C3CCN(c4c(C(N)=O)c(=O)n(C)c5ccc(OCC(C)(F)F)cc45)CC3)nc2c1 [Example 503, 6-(2,2-difluoropropoxy)-1-methyl-4-[4-(5-methyl-1,3-benzoxazol-2-yl)piperidin-1-yl]-2-oxo-1,2-dihydroquinoline-3-carboxamide], the pIC50 was 5.57.
Cc1ccc2oc(C3CCN(c4c(C(N)=O)c(=O)n(C)c5ccc(OCC(F)F)cc45)CC3)nc2c1 [Example 504, 6-(2,2-difluoroethoxy)-1-methyl-4-[4-(5-methyl-1,3-benzoxazol-2-yl)piperidin-1-yl]-2-oxo-1,2-dihydroquinoline-3-carboxamide] was tested, and the pIC50 was 6.62.
Molecule Cc1ccc2oc(C3CCN(c4c(C(N)=O)c(=O)n(C)c5ccc(OCC6CC6)cc45)CC3)nc2c1 [Example 505, 6-(cyclopropylmethoxy)-1-methyl-4-[4-(5-methyl-1,3-benzoxazol-2-yl)piperidin-1-yl]-2-oxo-1,2-dihydroquinoline-3-carboxamide] has a pIC50 of 6.57.
Work on Cc1ccc2oc(C3CCN(c4c(C(N)=O)c(=O)n(C)c5ccc(C6CCC6)cc45)CC3)nc2c1 [Example 506, 6-cyclobutyl-1-methyl-4-[4-(5-methyl-1,3-benzoxazol-2-yl)piperidin-1-yl]-2-oxo-1,2-dihydroquinoline-3-carboxamide] yielded a pIC50 of 6.24.
Cc1ccc2oc(C3CCN(c4c(C(N)=O)c(=O)n(C)c5ccc(C6(C(F)(F)F)CC6)cc45)CC3)nc2c1 [Example 507, 1-methyl-4-[4-(5-methyl-1,3-benzoxazol-2-yl)piperidin-1-yl]-2-oxo-6-[1-(trifluoromethyl)cyclopropyl]-1,2-dihydroquinoline-3-carboxamide] showed a pIC50 of 7.07.
With Cc1ccc2oc(C3CCN(c4c(C(N)=O)c(=O)n(C)c5cc(OCC(N)=O)ccc45)CC3)nc2c1 [Example 508, 7-(2-amino-2-oxoethoxy)-1-methyl-4-[4-(5-methyl-1,3-benzoxazol-2-yl)piperidin-1-yl]-2-oxo-1,2-dihydroquinoline-3-carboxamide] the pIC50 was 8.85.
With Cc1ccc2oc(C3(F)CCN(c4c(C(N)=O)c(=O)n(C)c5cc(OC6CCOC6)ccc45)CC3)nc2c1 (stereo not shown) [Example 509, 4-[4-fluoro-4-(5-methyl-1,3-benzoxazol-2-yl)piperidin-1-yl]-1-methyl-2-oxo-7-[(oxolan-3-yl)oxy]-1,2-dihydroquinoline-3-carboxamide] the pIC50 was 8.70.
Cc1ccc2oc(C3CCN(c4c(C(N)=O)c(=O)n(C)c5cc([N+](=O)[O-])c(C)cc45)CC3)nc2c1 [Example 510, 1,6-dimethyl-4-[4-(5-methyl-1,3-benzoxazol-2-yl)piperidin-1-yl]-7-nitro-2-oxo-1,2-dihydroquinoline-3-carboxamide] showed a pIC50 of 7.15.
Cc1ccc2oc(C3CCN(c4c(C(N)=O)c(=O)n(C)c5cc(O)c(Br)cc45)CC3)nc2c1 [Example 511, 6-bromo-7-hydroxy-1-methyl-4-[4-(5-methyl-1,3-benzoxazol-2-yl)piperidin-1-yl]-2-oxo-1,2-dihydroquinoline-3-carboxamide] was tested, and the pIC50 was 8.82.
With Cc1ccc2oc(C3(C)CCN(c4c(C(N)=O)c(=O)n(C)c5cc(O)c(Br)cc45)CC3)nc2c1 [Example 512, 6-bromo-7-hydroxy-1-methyl-4-[4-methyl-4-(5-methyl-1,3-benzoxazol-2-yl)piperidin-1-yl]-2-oxo-1,2-dihydroquinoline-3-carboxamide] the pIC50 was 9.10.
Cn1c(=O)c(C(N)=O)c(N2CCC(c3nnc(-c4cccc(C(F)(F)F)c4)o3)CC2)c2cc(Br)ccc21 [Example 519] gave a pIC50 of 7.70.
COc1ccc2c(c1)c(N1CCC(c3nc(-c4cccc(C)c4)no3)CC1)c(C(N)=O)c(=O)n2C [Example 520, 6-methoxy-1-methyl-4-{4-[3-(3-methylphenyl)-1,2,4-oxadiazol-5-yl]piperidin-1-yl}-2-oxo-1,2-dihydroquinoline-3-carboxamide] gave a pIC50 of 7.43.
In the case of COc1ccc2c(c1)c(N1CCC(c3nc(-c4ccccc4)no3)CC1)c(C(N)=O)c(=O)n2C [Example 521, 6-methoxy-1-methyl-2-oxo-4-[4-(3-phenyl-1,2,4-oxadiazol-5-yl)piperidin-1-yl]-1,2-dihydroquinoline-3-carboxamide], the pIC50 was 7.37.
Work on COc1ccc2c(c1)c(N1CCC(c3nc(-c4ccccc4C)no3)CC1)c(C(N)=O)c(=O)n2C [Example 522, 6-methoxy-1-methyl-4-{4-[3-(2-methylphenyl)-1,2,4-oxadiazol-5-yl]piperidin-1-yl}-2-oxo-1,2-dihydroquinoline-3-carboxamide] yielded a pIC50 of 7.36.
Cn1c(=O)c(C(N)=O)c(N2CCC(c3nc(-c4ccccc4)no3)CC2)c2cc(Br)ccc21 [Example 523, 6-bromo-1-methyl-2-oxo-4-[4-(3-phenyl-1,2,4-oxadiazol-5-yl)piperidin-1-yl]-1,2-dihydroquinoline-3-carboxamide] gave a pIC50 of 8.43.
Cn1c(=O)c(C(N)=O)c(N2CCC(c3nnc(-c4ccccc4)o3)CC2)c2cc(Br)ccc21 [Example 524, 6-bromo-1-methyl-2-oxo-4-[4-(5-phenyl-1,3,4-oxadiazol-2-yl)piperidin-1-yl]-1,2-dihydroquinoline-3-carboxamide] showed a pIC50 of 7.35.
Molecule Cc1ccccc1-c1nnc(C2CCN(c3c(C(N)=O)c(=O)n(C)c4ccc(Br)cc34)CC2)o1 [Example 525, 6-bromo-1-methyl-4-{4-[5-(2-methylphenyl)-1,3,4-oxadiazol-2-yl]piperidin-1-yl}-2-oxo-1,2-dihydroquinoline-3-carboxamide] has a pIC50 of 7.41.
In the case of Cc1cccc(-c2nnc(C3CCN(c4c(C(N)=O)c(=O)n(C)c5ccc(Br)cc45)CC3)o2)c1 [Example 526, 6-bromo-1-methyl-4-{4-[5-(3-methylphenyl)-1,3,4-oxadiazol-2-yl]piperidin-1-yl}-2-oxo-1,2-dihydroquinoline-3-carboxamide], the pIC50 was 7.57.
Cc1ccccc1-c1nnc(C2CCN(c3c(C(N)=O)c(=O)n(C)c4cc(O)c(Br)cc34)CC2)o1 [Example 529, 6-bromo-7-hydroxy-1-methyl-4-{4-[5-(2-methylphenyl)-1,3,4-oxadiazol-2-yl]piperidin-1-yl}-2-oxo-1,2-dihydroquinoline-3-carboxamide] gave a pIC50 of 7.34.
COc1cc2c(cc1Br)c(N1CCC(c3nc(-c4ccccc4C)no3)CC1)c(C#N)c(=O)n2C [Example 530, 6-bromo-7-methoxy-1-methyl-4-{4-[3-(2-methylphenyl)-1,2,4-oxadiazol-5-yl]piperidin-1-yl}-2-oxo-1,2-dihydroquinoline-3-carbonitrile] gave a pIC50 of 8.74.
Cc1ccccc1-c1noc(C2CCN(c3c(C#N)c(=O)n(C)c4cc(O)c(Br)cc34)CC2)n1 [Example 531, 6-bromo-7-hydroxy-1-methyl-4-{4-[3-(2-methylphenyl)-1,2,4-oxadiazol-5-yl]piperidin-1-yl}-2-oxo-1,2-dihydroquinoline-3-carbonitrile] was tested, and the pIC50 was 8.09.
Cc1ccc2oc(C3CCN(c4c(C#N)c(=O)n(C)c5cc(O[C@@H]6CCOC6)c(Br)cc45)CC3)nc2c1 [Example 537, (−)-6-bromo-1-methyl-4-[4-(5-methyl-1,3-benzoxazol-2-yl)piperidin-1-yl]-2-oxo-7-{[(3R)-oxolan-3-yl]oxy}-1,2-dihydroquinoline-3-carbonitrile] was tested, and the pIC50 was 9.70.
Molecule COCCNc1cc2c(cc1C)c(N1CCC(c3nc4cc(C)ccc4o3)CC1)c(C#N)c(=O)n2C [Example 547, 7-[(2-methoxyethyl)amino]-1,6-dimethyl-4-[4-(5-methyl-1,3-benzoxazol-2-yl)piperidin-1-yl]-2-oxo-1,2-dihydroquinoline-3-carbonitrile] has a pIC50 of 9.22.
Cc1ccc2oc(C3CCN(c4c(C#N)c(=O)n(C)c5cc(NC6COC6)c(C)cc45)CC3)nc2c1 [Example 549, 1,6-dimethyl-4-[4-(5-methyl-1,3-benzoxazol-2-yl)piperidin-1-yl]-7-[(oxetan-3-yl)amino]-2-oxo-1,2-dihydroquinoline-3-carbonitrile] gave a pIC50 of 9.22.
Cc1ccc2oc(C3CCN(c4c(C#N)c(=O)n(C)c5cc(N(C)CCO)c(C)cc45)CC3)nc2c1 [Example 551, 7-[(2-hydroxyethyl)(methyl)amino]-1,6-dimethyl-4-[4-(5-methyl-1,3-benzoxazol-2-yl)piperidin-1-yl]-2-oxo-1,2-dihydroquinoline-3-carbonitrile] was tested, and the pIC50 was 10.00.

Reference: patent publication US11998539B2, “Substituted aminoquinolones as DGKalpha inhibitors for immune activation” (Bayer Aktiengesellschaft, priority 2019, dated 2024)
